Source: patent publication US9096524B2, “Anthelmintic agents and their use” (Intervet International B.V., priority 2009, dated 2015)

test system: A. galli (intestinal roundworm of chicken) larval stage 3; O. dentatum (nodular worm of swine) larval stages 3 and 4; assay: Activity against Ascaridia galli and Oesophagostomum dentatum larvae in vitro (minimum effective concentration); type: cell-based; details: in vitro; one or more of A. galli L3, O. dentatum L3, L4; threshold 1 μM; read-out: MEC (minimum effective concentration) against one or more of the tested nematodes

SMILES	minimal effective concentration [µM]
O=C(CCN1CCN(c2nnc(C(F)(F)F)s2)CC1)N1CC[C@H](Nc2ccc([N+](=O)[O-])c(C(F)(F)F)c2)C1 [Example 720]	< 1
O=C(CCCN1CCN(c2ccc(C(F)(F)F)cc2)CC1)N1CC[C@H](Nc2ccc([N+](=O)[O-])c(C(F)(F)F)c2)C1 [Example 730]	< 1
O=C(CCCN1CCN(c2ccc(Cl)cc2)CC1)N1CC[C@H](Nc2ccc([N+](=O)[O-])c(C(F)(F)F)c2)C1 [Example 731]	< 1
O=C(CCCC1CCN(c2ccc(C(F)(F)F)cc2)CC1)N1CC[C@H](Nc2ccc([N+](=O)[O-])c(C(F)(F)F)c2)C1 [Example 733]	< 1
COc1ccc(N2CCN(CCCC(=O)N3CC[C@H](Nc4ccc([N+](=O)[O-])c(C(F)(F)F)c4)C3)CC2)cn1 [Example 746]	< 1
O=C(CCCN1CCN(c2nnc(C(F)(F)F)s2)CC1)N1CC[C@H](Nc2ccc([N+](=O)[O-])c(C(F)(F)F)c2)C1 [Example 749]	< 1
O=C(CCCC1CCN(c2ccc(Cl)cc2)CC1)N1CC[C@@H](Nc2ccc([N+](=O)[O-])c(C(F)(F)F)c2)C1 [Example 774]	< 1
O=C(CCC1CCN(c2ccc(C(F)(F)F)cc2)CC1)N1CC[C@@H](Nc2ccc([N+](=O)[O-])c(C(F)(F)F)c2)C1 [Example 775]	< 1
O=C(CCCN1CCCN(c2ccc(Cl)cc2)CC1)N1CC[C@@H](Nc2ccc([N+](=O)[O-])c(C(F)(F)F)c2)C1 [Example 777]	< 1
CC(C)(C)c1ccc(N2CCCN(CCCC(=O)N3CC[C@@H](Nc4ccc([N+](=O)[O-])c(C(F)(F)F)c4)C3)CC2)cc1 [Example 778]	< 1
O=C(CCCN1CCN(c2nnc(C(F)(F)F)s2)CC1)N1CC[C@@H](Nc2ccc([N+](=O)[O-])c(C(F)(F)F)c2)C1 [Example 784]	< 1
CC(CN1CCN(c2ccc(C(C)(C)C)cc2)CC1)C(=O)N1CC[C@@H](Nc2ccc([N+](=O)[O-])c(C(F)(F)F)c2)C1 (stereo partly drawn) [Example 787]	< 1
O=C(CCN1CCN(c2ccc(Cl)cc2)CC1)N1CC[C@@H](Nc2ccc([N+](=O)[O-])c(C(F)(F)F)c2)C1 [Example 789]	< 1
CC(C)(C)c1ccc(N2CCN(CCC(=O)N3CC[C@@H](Nc4ccc([N+](=O)[O-])c(C(F)(F)F)c4)C3)CC2)cc1 [Example 790]	< 1
O=C(CCCN1CCN(c2ccc(Cl)cc2)CC1)N1CC[C@@H](Nc2ccc([N+](=O)[O-])c(C(F)(F)F)c2)C1 [Example 792]	< 1
O=C(CCN1CCN(c2ccc(Cl)cn2)CC1)N1CC[C@@H](Nc2ccc([N+](=O)[O-])c(C(F)(F)F)c2)C1 [Example 795]	< 1
O=C(CCN1CCCN(c2ccc(Cl)cc2)CC1)N1CC[C@@H](Nc2ccc([N+](=O)[O-])c(C(F)(F)F)c2)C1 [Example 799]	< 1
N#Cc1ccc(N2CCCN(C(=O)CCCN3CCN(c4ccc(C(F)(F)F)cc4)CC3)CC2)cc1C(F)(F)F [Example 1008]	< 1
CC(C)(C)c1ccc(N2CCN(CCCC(=O)N3CCCN(c4ccc(C#N)c(C(F)(F)F)c4)CC3)CC2)cc1 [Example 1010]	< 1
O=C(CCCN1CCN(c2ccc(C(F)(F)F)cc2)CC1)N1CCCN(c2ccc(C(F)(F)F)cn2)CC1 [Example 1014]	< 1
O=C(CCN1CCN(c2ccc(C(F)(F)F)cc2)CC1)N1CCCN(c2ccc(SC(F)(F)F)cc2)CC1 [Example 1017]	< 1
CC(C)(C)c1ccc(N2CCN(CCC(=O)N3CCCN(c4ccc(SC(F)(F)F)cc4)CC3)CC2)cc1 [Example 1019]	< 1
COc1ccc(N2CCN(CCC(=O)N3CCCN(c4ccc(SC(F)(F)F)cc4)CC3)CC2)cc1 [Example 1020]	< 1
O=C(CCCN1CCN(c2ccc(C(F)(F)F)cc2)CC1)N1CCCN(c2ccc(SC(F)(F)F)cc2)CC1 [Example 1027]	< 1
O=C(CCCN1CCN(c2ccc(Cl)cc2)CC1)N1CCCN(c2ccc(SC(F)(F)F)cc2)CC1 [Example 1028]	< 1

same assay, conditions: in vitro; one or more of A. galli L3, O. dentatum L3, L4; threshold 7 μM; read-out: MEC (minimum effective concentration) against one or more of the tested nematodes

SMILES	minimal effective concentration [µM]
O=C(CCCC1CCN(c2ccc(C(F)(F)F)cc2)CC1)N1CC[C@H](Nc2ccc([N+](=O)[O-])c(C(F)(F)F)c2)C1 [Example 733]	< 7
O=C(CCCC1CCN(c2ccc(Cl)cc2)CC1)N1CC[C@H](Nc2ccc([N+](=O)[O-])c(C(F)(F)F)c2)C1 [Example 734]	< 7
O=C(CCCN1CC2CN(c3ccc(C(F)(F)F)cc3)CC2C1)N1CC[C@H](Nc2ccc([N+](=O)[O-])c(C(F)(F)F)c2)C1 (stereo partly drawn) [Example 743]	< 7
O=C(CCN1CCN(c2ccc(C(F)(F)F)cc2)CC1)N1CCCN(c2ccc([N+](=O)[O-])c(C(F)(F)F)c2)CC1 [Example 997]	< 7
CC(C)(C)c1ccc(N2CCN(CCC(=O)N3CCCN(c4ccc([N+](=O)[O-])c(C(F)(F)F)c4)CC3)CC2)cc1 [Example 998]	< 7
O=C(CCCN1CCN(c2ccc(C(F)(F)F)cc2)CC1)N1CCCN(c2ccc([N+](=O)[O-])c(C(F)(F)F)c2)CC1 [Example 1001]	< 7
CC(C)(C)c1ccc(N2CCN(CCCC(=O)N3CCCN(c4ccc([N+](=O)[O-])c(C(F)(F)F)c4)CC3)CC2)cc1 [Example 1003]	< 7

same assay, conditions: in vitro; two or more of A. galli L3, O. dentatum L3, L4; threshold 1 μM; read-out: MEC (minimum effective concentration) against two or more of the tested nematodes

SMILES	minimal effective concentration [µM]
O=C(CCN1CCCN(c2ccc(C(F)(F)F)cc2)CC1)N1CC[C@H](Nc2ccc([N+](=O)[O-])c(C(F)(F)F)c2)C1 [Example 725]	< 1
O=C(CCCN1CCN(c2ccc(C(F)(F)F)cc2)CC1)N1CC[C@H](Nc2ccc([N+](=O)[O-])c(C(F)(F)F)c2)C1 [Example 730]	< 1
N#Cc1ccc(NC2CCN(C(=O)CCCN3CCC(Nc4ccc(Cl)cc4)CC3)CC2)cc1C(F)(F)F [Example 759]	< 1
O=C(CCCC1CCN(c2ccc(Cl)cc2)CC1)N1CC[C@@H](Nc2ccc([N+](=O)[O-])c(C(F)(F)F)c2)C1 [Example 774]	< 1
CC(C)(C)c1ccc(N2CCCN(CCCC(=O)N3CC[C@@H](Nc4ccc([N+](=O)[O-])c(C(F)(F)F)c4)C3)CC2)cc1 [Example 778]	< 1
O=C(CCN1CCN(c2ccc(Cl)cc2)CC1)N1CC[C@@H](Nc2ccc([N+](=O)[O-])c(C(F)(F)F)c2)C1 [Example 789]	< 1
O=C(CCCN1CCN(c2ccc(C(F)(F)F)cc2)CC1)N1CCN(c2ccc(SC(F)(F)F)cc2)CC1 [Example 1033]	< 1

same assay, conditions: read-out: MEC (minimum effective concentration) against two or more of the tested nematodes, in vitro; two or more of A. galli L3, O. dentatum L3, L4; threshold 1 μM

SMILES	minimal effective concentration [µM]
CC(CN1CCN(c2ccc(Cl)cc2)CC1)C(=O)N1CC[C@@H](Nc2ccc([N+](=O)[O-])c(C(F)(F)F)c2)C1 (stereo partly drawn) [Example 752]	< 1
N#Cc1ccc(NC2CCN(C(=O)CCCC3CCN(c4ccc(Cl)cc4)CC3)CC2)cc1C(F)(F)F [Example 754]	< 1
N#Cc1ccc(NC2CCN(C(=O)CCCN3CCCN(c4ccc(Cl)cc4)CC3)CC2)cc1C(F)(F)F [Example 757]	< 1
COc1ccc(N2CCN(CCCC(=O)N3CCC(Nc4ccc(C#N)c(C(F)(F)F)c4)CC3)CC2)cn1 [Example 760]	< 1
N#Cc1ccc(NC2CCN(C(=O)CCN3CCN(c4ccc(Cl)cn4)CC3)CC2)cc1C(F)(F)F [Example 764]	< 1
N#Cc1ccc(NC2CCN(C(=O)CCN3CCCN(c4ccc(Cl)cc4)CC3)CC2)cc1C(F)(F)F [Example 770]	< 1
